One block for each molecule: values may come before it.
Test: solvent given as SMILES

Compound: CN(C)c1ccc(/C=C/C=C2\CC/C(=C\C=C\c3ccc(N(C)C)cc3)C2=O)cc1
absorption maximum (in C1CCCCC1): 480 nm | absorption maximum (in CC#N): 490 nm | absorption maximum (in CC(C)=O): 493 nm | absorption maximum (in CC(C)O): 515 nm | absorption maximum (in CCCCCC): 478 nm | absorption maximum (in CCCCO): 524 nm | absorption maximum (in CCCO): 515 nm | absorption maximum (in CCO): 510 nm | absorption maximum (in CCOC(C)=O): 480 nm | absorption maximum (in CCOCC): 475 nm | absorption maximum (in CN(C)C=O): 507 nm | absorption maximum (in CO): 523 nm | absorption maximum (in CS(C)=O): 512 nm | absorption maximum (in Cc1ccccc1): 495 nm | absorption maximum (in ClC(Cl)(Cl)Cl): 465 nm | absorption maximum (in ClCCl): 503 nm | absorption maximum (in OCC(F)(F)F): 534 nm | absorption maximum (in S=C=S): 480 nm | absorption maximum (in c1ccccc1): 475 nm | absorption maximum (in c1ccncc1): 507 nm

Compound: CCN(CC)c1cc2oc(=O)cc(C)c2cc1C
absorption maximum (in CCO): 442 nm

Compound: CN(CCO)c1ccc(/N=N/c2ccc([N+](=O)[O-])cc2)cc1
absorption maximum (in CO): 487 nm | absorption maximum (in OCC(O)CO): 509 nm | absorption maximum (in OCCO): 498 nm | absorption maximum (in Oc1ccccc1): 548 nm

Compound: Cc1cccc2cc3c(=O)n(C)c(=O)n(C)c3nc12
absorption maximum (in CC#N): 359 nm | absorption maximum (in CC(C)O): 360 nm | absorption maximum (in CCO): 359 nm | absorption maximum (in CO): 361 nm | absorption maximum (in ClC(Cl)Cl): 362 nm | absorption maximum (in ClCCl): 362 nm

Compound: CCC1(CC)c2cc(-c3ccc(N(c4ccc(-c5ccc6c(c5)C(CC)(CC)c5cc(N7c8ccccc8C(C)(C)c8ccccc87)ccc5-6)cc4)c4ccc(-c5ccc6c(c5)C(CC)(CC)c5cc(N7c8ccccc8C(C)(C)c8ccccc87)ccc5-6)cc4)cc3)ccc2-c2ccc(N3c4ccccc4C(C)(C)c4ccccc43)cc21
absorption maximum (in ClC(Cl)Cl): 366 nm

Compound: Nc1ccc2ccc([O-])cc2c1
absorption maximum (in O): 342 nm

Compound: CCc1ccc(/C=N/c2cc(C(C)C)c(O)cc2C)cc1
absorption maximum (in C1CCCCC1): 344 nm | absorption maximum (in C1CCOC1): 348 nm | absorption maximum (in C1COCCO1): 347 nm | absorption maximum (in CC#N): 340 nm | absorption maximum (in CC(C)(C)O): 350 nm | absorption maximum (in CC(C)O): 347 nm | absorption maximum (in CCCCCC): 342 nm | absorption maximum (in CCCCO): 349 nm | absorption maximum (in CCO): 346 nm | absorption maximum (in CCOC(C)=O): 346 nm | absorption maximum (in CN(C)C=O): 351 nm | absorption maximum (in CO): 346 nm | absorption maximum (in CS(C)=O): 352 nm | absorption maximum (in ClC(Cl)Cl): 343 nm | absorption maximum (in ClCCl): 341 nm | absorption maximum (in O): 354 nm | absorption maximum (in OCCO): 346 nm

Compound: CCCCCCCCCCCCC(CCCCCCCCCC)Cn1c2cc(/C=C/C=C(C#N)C#N)c3cccc4c5cccc6c(/C=C/C=C(C#N)C#N)cc1c(c65)c2c34 (stereo not given)
absorption maximum (in C1CCCCC1): 638 nm | absorption maximum (in CC#N): 599 nm | absorption maximum (in Cc1ccccc1): 597 nm | absorption maximum (in ClCCl): 611 nm

Compound: CC1(C)c2ccccc2N(c2ccccc2)c2ccc(-c3ccc(C(=O)c4ccc(-c5ccc6c(c5)C(C)(C)c5ccccc5N6c5ccccc5)cc4)cc3)cc21
absorption maximum (in Cc1ccccc1): 377.59 nm

Further lines, results first:

absorption maximum (in ClC(Cl)Cl): 526 nm
Compound: CCC1=C(C)C2C(c3ccc(-c4ccc(-c5nc6c7ccccc7c7ccccc7c6n5-c5ccc(C(C)(C)C)cc5)cc4)cc3)c3c(C)c(CC)c(C)n3[B-](F)(F)[N+]2=C1C (stereo not given)

absorption maximum (in ClC(Cl)Cl): 434 nm
Compound: Cc1cccc(C2=Cc3c4ccccc4c4ccccc4[n+]3[B-](F)(F)O2)c1

absorption maximum (in ClCCl): 378 nm
Compound: C1=C(c2ccccc2)S[C@]23C1=C(c1ccccc1)[C@H](c1ccccc12)c1ccccc13

absorption maximum (in CC#N): 336 nm
Compound: Cc1cc(=O)c2c(ccc3ccc(O)cc32)o1

absorption maximum (in O): 646 nm
Compound: Cc1ccc(C2=C3C=CC(=[N+](C)C)C=C3[Si](C)(C)c3cc(N(C)C)ccc32)c(C)c1

absorption maximum (in ClCCl): 321 nm
Compound: CCOC(=O)c1c(-c2c(Cl)c3ccccc3oc2=O)nn(-c2cccc(Cl)c2)c1C(=O)OCC

absorption maximum (in C1CCCCC1): 432 nm | absorption maximum (in CC#N): 445 nm | absorption maximum (in CCO): 448 nm | absorption maximum (in c1ccccc1): 445 nm
Compound: CNc1cccc2c1C(=O)c1ccccc1-2

absorption maximum (in CC#N): 351 nm | absorption maximum (in CO): 349 nm | absorption maximum (in CS(C)=O): 357 nm | absorption maximum (in ClC(Cl)Cl): 353 nm
Compound: O=C1C=Cc2cc3ccccc3c(=O)n21

absorption maximum (in ClC(Cl)Cl): 664 nm
Compound: CN1C(=CC2=C([O-])C(=Cc3oc4ccccc4[n+]3C)C2=C(C#N)C#N)Sc2ccccc21

absorption maximum (in ClCCl): 376 nm
Compound: c1cc(-c2c3ccccc3c(-c3ccc4ccccc4c3)c3ccccc23)cc(-n2c3ccccc3c3ccccc32)c1

absorption maximum (in C1CCCCC1): 316 nm | absorption maximum (in C1CCOC1): 319 nm | absorption maximum (in CC#N): 320 nm | absorption maximum (in CCO): 322 nm | absorption maximum (in CO): 320 nm | absorption maximum (in ClC(Cl)Cl): 325 nm
Compound: CCCCCCOc1ccc(-c2cnc(-c3nnc(-c4ccc(OCCCCCC)cc4)o3)o2)cc1

absorption maximum (in ClCCl): 447 nm
Compound: Cc1ccccc1-c1c2cccc3c(-c4ccc(C(C)(C)C)cc4)cc4c(-c5ccccc5C)c5cccc6c(-c7ccc(C(C)(C)C)cc7)cc1c(c65)c4c32

absorption maximum (in CCO): 439 nm
Compound: OCc1ccc2c3cccc4cccc(c5cccc1c52)c43

absorption maximum (in ClCCl): 376 nm
Compound: COc1ccc(/C=C/c2cc(/C=C/c3ccc(OC)cc3)nc(/C=C/c3ccc(N(c4ccccc4)c4ccccc4)cc3)n2)cc1
